The source of these data is US12612410B2 (CHILDREN'S HOSPITAL MEDICAL CENTER, priority 2020, dated 2026).

Usually IC50 stands for the concentration that inhibits the measured activity by half. A high value points to weaker potency.

For the assay, the target named is T1, FLT3 (Homo sapiens, UniProt P36888).
T1 sequence (P36888 27-993): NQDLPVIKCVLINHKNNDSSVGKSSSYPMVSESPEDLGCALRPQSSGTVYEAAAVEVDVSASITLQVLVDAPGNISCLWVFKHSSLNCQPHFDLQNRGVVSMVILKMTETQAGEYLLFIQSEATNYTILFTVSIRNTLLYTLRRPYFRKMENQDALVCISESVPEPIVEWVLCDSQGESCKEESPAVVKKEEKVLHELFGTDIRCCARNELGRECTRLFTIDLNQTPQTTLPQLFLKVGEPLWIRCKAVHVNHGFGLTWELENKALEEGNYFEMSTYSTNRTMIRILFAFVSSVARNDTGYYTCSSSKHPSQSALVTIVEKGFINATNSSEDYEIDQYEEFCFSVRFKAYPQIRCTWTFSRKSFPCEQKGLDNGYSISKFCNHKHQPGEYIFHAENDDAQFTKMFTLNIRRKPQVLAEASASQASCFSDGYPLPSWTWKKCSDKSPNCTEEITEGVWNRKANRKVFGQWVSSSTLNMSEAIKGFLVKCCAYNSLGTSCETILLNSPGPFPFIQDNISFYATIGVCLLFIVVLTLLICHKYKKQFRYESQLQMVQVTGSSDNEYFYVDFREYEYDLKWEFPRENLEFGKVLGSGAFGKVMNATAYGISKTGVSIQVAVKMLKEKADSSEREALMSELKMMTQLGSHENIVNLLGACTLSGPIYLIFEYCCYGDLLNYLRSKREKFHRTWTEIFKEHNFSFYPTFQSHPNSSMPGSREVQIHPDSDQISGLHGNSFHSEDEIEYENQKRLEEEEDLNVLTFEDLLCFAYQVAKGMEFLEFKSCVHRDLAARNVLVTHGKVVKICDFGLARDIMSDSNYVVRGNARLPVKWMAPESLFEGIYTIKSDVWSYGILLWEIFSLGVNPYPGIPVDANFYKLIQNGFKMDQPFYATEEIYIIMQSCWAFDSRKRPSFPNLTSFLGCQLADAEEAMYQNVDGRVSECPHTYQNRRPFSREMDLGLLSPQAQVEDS
As to the kind of experiment: Reaction Biology NanoBRET target engagement assay, FLT3. The class given is cell-based. The conditions noted are these: transfected HEK-293 cells. The text has this: The NanoBRET assay measures kinase engagement in real time in the context of the intact cell. Unlike the previously described biochemical kinase assay methodologies in Examples 26-27, the NanoBRET assay measures the binding and activity characteristics under equilibrium conditions using full-length kinases in the presence of cellular concentrations of ATP in live, uncompromised cells. As such, the assay provides a more relevant assessment of kinase potency and selectivity that would be expected to be observed in the native cellular environment, where potency is often considerably lower than that observed in the isolated biochemical assays (Vasta, J. D. et al., (2018) Cell Chem. Biol. 25, 206-214). The assay uses a Kinase-NanoLuc® fusion vector expressing a kinase protein to which a luciferase tag has been added, a cell-permeant fluorescent NanoBRET™ tracer, a NanoLuc® substrate, and an extracellular NanoLuc® inhibitor. Upon expression of the luciferase-tagged kinase, cells will produce a strong BRET signal only in the presence of the NanoBRET™ tracer. The extracellular NanoLuc® inhibitor ensures that the BRET signal observed emanates only from live cells. Because the BRET signal has tight distance constraints, addition of the test compound will decrease the BRET signal if the compound competes with the NanoBRET™ tracer for binding to the kinase domain. Under the appropriate tracer conditions established by the manufacturer, quantitative intracellular affinity and relative potency can then be determined using Mass Action model equations.
HEK-293 cells were purchased from ATCC. FuGENEHD Transfection Reagent, Kinase-NanoLucfusion plasmids, Transfection Carrier DNA, NanoBRETTracers and dilution buffer, NanoBRETNano-Glo Substrate, Extracellular NanoLucInhibitor were obtained from Promega.
Assays were conducted following Promega assay protocol with some modifications. HEK-293 Cells were transiently transfected with Kinase-NanoLucFusion Vector DNA by FuGENEHD Transfection Reagent. Testing compounds were delivered into 384 well assay plate by Echo 550 (Labcytelnc, Sunnyvale, CA). Transfected cells were harvested and mixed with NanoBRETTracer Reagent and dispensed into 384 well plates and incubated at 37° C. in 5% CO2 cell culture incubator for 1 hour. The NanoBRETNano-Glo Substrate plus Extracellular NanoLucInhibitor Solution were added into the wells of the assay plate and incubated for 2-3 minutes at room temperature. The donor emission wavelength (460 nm) and acceptor emission wavelength (600 nm) were measured in the EnVisionplate reader. The BRET Ratios were calculated. BRET Ratio=[(Acceptor sample÷Donor sample)−(Acceptor no-tracer control÷Donor no-tracer control)]. The IC50 values of compounds were calculated with Prism GraphPad program.
NanoBRET™ Target Engagement Assay Protocol
1. Transient Transfection of HEK-293 Cells NanoLuc® Fusion Vector DNA
• 1). Cultivate HEK-293 cells (70-80% confluence) appropriately prior to assay. Trypsinize and collect HEK-293 cells. • 2). Prepare lipid: DNA complexes as follows: • a. Prepare a […] solution of DNA in Opti-MEM without serum that consists of the following ratios of carrier DNA and DNA encoding NanoLuc® fusion. 9.0 µg/mL of Transfection Carrier DNA, […] of NanoLuc fusion vector DNA and 1 mL of Opti-MEM without phenol red. Mix thoroughly. • b. Add 30 l of FuGENE HD Transfection Reagent into each milliliter of DNA mixture to form lipid: DNA complex. • c. Mix by inversion 10 times. • d. Incubate at ambient temperature for 20 minutes to allow complexes to form. • 3). In a sterile, conical tube, mix 1 part of lipid: DNA complex with 20 parts of HEK-293 cells in suspension. Mix gently by inversion 5 times. • 4). Dispense cells+lipid: DNA complex into a sterile tissue culture dish and incubate for 22-24 hours. 2. Addition of Test Compounds (dry plate shooting)
Each test compound is delivered from the compound source plate to the wells of 384-well white NBS plate by Echo 550.
3. […]

For `O=C1CCCN1c1cn2c(-c3cccc(N[C@H]4CNC[C@@H]4F)n3)cnc2cn1` [Compound 121, 1-(3-(6-(((3S,4S)-4-fluoropyrrolidin-3-yl)amino)pyridin-2-yl)imidazo[1,2-a]pyrazin-6-yl)pyrrolidin-2-one], half-maximal inhibition (IC50) required 21 nM.

On to `CC(C)(C)c1cn2c(-c3nc(N[C@H]4CNC[C@@H]4F)c(F)cc3F)cnc2cn1` [Compound 125], for which the midpoint of inhibition, the IC50, lay at 937 nM.

As for `CC(C)(C)c1cn2c(-c3nc(N[C@@H]4CCCNC4)c(F)cc3F)cnc2cn1` [Compound 126, (R)-6-(6-(tert-butyl)imidazo[1,2-a]pyrazin-3-yl)-3,5-difluoro-N-(piperidin-3-yl)pyridin-2-amine], the IC50 amounted to 8 nM.

The compound `CC(C)(C)c1cn2c(-c3nc(N[C@H]4CNCC[C@@H]4F)c(F)cc3F)cnc2cn1` [Compound 127, 6-(6-(tert-butyl)imidazo[1,2-a]pyrazin-3-yl)-3,5-difluoro-N-((3S,4S)-4-fluoropiperidin-3-yl)pyridin-2-amine] showed an IC50 of 16 nM.

Turning to `CC(C)(C)c1cn2c(-c3cccc(N[C@@H]4CCCNC4)n3)cnc2cn1` [Compound 129, (R)-6-(6-(tert-butyl)imidazo[1,2-a]pyrazin-3-yl)-N-(piperidin-3-yl)pyridin-2-amine], the IC50 is 12 nM.

The compound `CC(C)(C)c1cn2c(-c3cccc(N[C@H]4CNCC[C@@H]4F)n3)cnc2cn1` [Compound 130, 6-(6-(tert-butyl)imidazo[1,2-a]pyrazin-3-yl)-N-((3S,4S)-4-fluoropiperidin-3-yl)pyridin-2-amine] had an IC50 of 11 nM.
